From ChEMBL document CHEMBL1759913, “Discovery of the first non-ATP competitive IGF-1R kinase inhibitors: advantages in comparison with competitive inhibitors” (Bioorg Med Chem Lett, 2011) come the findings set out here.

The structures appear in SMILES notation. In brackets after ≈: the same amount, converted by molar mass.

Series [1] concerns the target T1, Insulin-like growth factor 1 receptor (Homo sapiens, UniProt P08069). The experiment in a line: Inhibition of IGF-induced autophosphosphorylation of GST-tagged human IGF1R expressed in SF21 cells by time resolved-fluorescent assay.
Series [2] addresses T1, Insulin-like growth factor 1 receptor. The experiment in a line: Inhibition of IGF-induced autophosphosphorylation of GST-tagged human IGF1R expressed in baculovirus-SF21 cell system preincubated for 30 mins by time resolved-fluorescent assay.
Series [3] shares this target. Description: Inhibition of IGF-induced autophosphosphorylation of GST-tagged human IGF1R expressed in SF21 cells after 10 mins by time resolved-fluorescent assay.
Series [4] shares this target. The experiment in a line: Inhibition of IGF-induced autophosphosphorylation of GST-tagged human IGF1R expressed in baculovirus-SF21 cell system preincubated for 5 mins by time resolved-fluorescent assay.
For series [5] the target is unchanged. Description: Inhibition of IGF-induced autophosphosphorylation of GST-tagged human IGF1R expressed in baculovirus-SF21 cell system preincubated for 10 mins by time resolved-fluorescent assay.
For series [6] the target is unchanged. Description: Inhibition of autophosphosphorylation of human IGF1R expressed in IGF1-stimulated MCF7 cells by ELISA. It is filed as cell-based.
Series [7] shares this target. Description: Inhibition of autophosphosphorylation of human IGF1R expressed in IGF1-stimulated MCF7 cells preincubated for 60 mins by ELISA. Type of series: cell-based. Background: ELISA stands for enzyme-linked immunosorbent assay.
Series [8] concerns MEF. The experiment in a line: Antiproliferative activity against mouse MEF cells transfected with human IGF1R assessed as inhibition of IGF1-induced proliferation after 72 hrs by [14C]thymidine incorporation assay. Type of series: functional, cell-based. On the technique in general: Uptake of a labelled nucleoside into DNA is a usual measure of proliferation.
Series [9] deals with T1, Insulin-like growth factor 1 receptor. The experiment in a line: Inhibition of IGF-induced autophosphosphorylation of GST-tagged human IGF1R expressed in baculovirus-SF21 cell system preincubated for 60 mins by time resolved-fluorescent assay.
Series [10] concerns the target Cytochrome P450 2D6 (Homo sapiens, UniProt P10635). The experiment in a line: Inhibition of CYP2D6. Type of series: ADME.
In series [11] the target is Cytochrome P450 2C19 (Homo sapiens, UniProt P33261). Description: Inhibition of CYP2C19. Type of series: ADME.
The nature of series [12]: Cmax in BALB/c mouse plasma at 10 mg/kg, po upto 24 hrs. It is filed as ADME, organism-based. More on the design: dose 10 mg/kg, route oral.
For series [13], the target named is Insulin receptor (Homo sapiens, UniProt P06213). Description: Inhibition of insulin receptor kinase.
The target of series [14] is Cytochrome P450 3A4 (Homo sapiens, UniProt P08684). The experiment in a line: Inhibition of CYP3A4. It is filed as ADME.
Series [15] can be described thus: Solubility of compound. It is filed as physicochemical.
In series [16] the target is Cytochrome P450 2C9 (Homo sapiens, UniProt P11712). The experiment in a line: Inhibition of CYP2C9. It is filed as ADME.
Series [17] in a line: Oral bioavailability in BALB/c mouse at 10 mg/kg. It is filed as ADME, organism-based. The following applies: in vivo.
Series [18] is described as follows: AUC (0 to infinity) in BALB/c mouse at 10 mg/kg, po. Type of series: ADME, organism-based. On the set-up: time infinity, dose 10 mg/kg, route oral. The following applies: plasma.
For series [19], the target named is T2, Cytochrome P450 1A2 (Homo sapiens, UniProt P05177).
T2 sequence (P05177 whole entry): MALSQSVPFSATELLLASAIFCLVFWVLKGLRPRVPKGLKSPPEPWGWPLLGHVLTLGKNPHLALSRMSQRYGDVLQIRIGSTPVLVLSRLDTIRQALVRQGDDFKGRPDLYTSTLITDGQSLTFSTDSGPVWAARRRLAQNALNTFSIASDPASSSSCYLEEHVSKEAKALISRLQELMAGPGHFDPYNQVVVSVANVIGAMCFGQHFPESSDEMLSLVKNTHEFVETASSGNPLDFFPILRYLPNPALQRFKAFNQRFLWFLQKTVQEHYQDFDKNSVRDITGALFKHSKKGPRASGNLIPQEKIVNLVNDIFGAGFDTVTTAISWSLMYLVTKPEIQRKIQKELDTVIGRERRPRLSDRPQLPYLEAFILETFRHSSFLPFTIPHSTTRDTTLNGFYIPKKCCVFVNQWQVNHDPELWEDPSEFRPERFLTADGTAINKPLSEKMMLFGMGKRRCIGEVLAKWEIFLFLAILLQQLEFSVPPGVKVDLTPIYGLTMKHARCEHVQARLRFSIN
The experiment in a line: Inhibition of CYP1A2. It is filed as ADME.

Series [20] in a line: Metabolic stability in mouse liver microsomes assessed as compound remaining after 15 mins. On the technique in general: Liver microsomes are vesicles of endoplasmic reticulum, rich in cytochrome P450 enzymes.
Series [21] is described as follows: Metabolic stability in human microsomes assessed as compound remaining after 15 mins. Type of series: ADME, Microsome. Particulars: read-out: Stability.

T1 sequence (P08069 31-736 limits assumed): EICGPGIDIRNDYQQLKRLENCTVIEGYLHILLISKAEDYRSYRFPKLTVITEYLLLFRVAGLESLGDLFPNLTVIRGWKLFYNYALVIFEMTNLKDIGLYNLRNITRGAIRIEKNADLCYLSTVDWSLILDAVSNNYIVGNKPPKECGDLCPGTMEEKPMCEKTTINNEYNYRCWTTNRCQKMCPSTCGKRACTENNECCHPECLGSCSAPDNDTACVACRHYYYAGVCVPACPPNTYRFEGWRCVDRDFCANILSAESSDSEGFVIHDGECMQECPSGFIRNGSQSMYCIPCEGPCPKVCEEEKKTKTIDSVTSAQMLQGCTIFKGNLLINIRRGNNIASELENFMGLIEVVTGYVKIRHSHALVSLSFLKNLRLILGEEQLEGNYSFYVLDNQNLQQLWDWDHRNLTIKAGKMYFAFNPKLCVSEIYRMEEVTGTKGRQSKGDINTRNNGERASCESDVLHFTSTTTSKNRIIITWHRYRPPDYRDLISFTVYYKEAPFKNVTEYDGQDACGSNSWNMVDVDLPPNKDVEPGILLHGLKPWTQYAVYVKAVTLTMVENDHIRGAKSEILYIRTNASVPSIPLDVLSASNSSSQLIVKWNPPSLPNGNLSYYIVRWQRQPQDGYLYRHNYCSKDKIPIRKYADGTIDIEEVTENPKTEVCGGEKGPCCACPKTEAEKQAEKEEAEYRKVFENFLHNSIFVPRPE
T1 sequence (P08069 741-1367 limits assumed): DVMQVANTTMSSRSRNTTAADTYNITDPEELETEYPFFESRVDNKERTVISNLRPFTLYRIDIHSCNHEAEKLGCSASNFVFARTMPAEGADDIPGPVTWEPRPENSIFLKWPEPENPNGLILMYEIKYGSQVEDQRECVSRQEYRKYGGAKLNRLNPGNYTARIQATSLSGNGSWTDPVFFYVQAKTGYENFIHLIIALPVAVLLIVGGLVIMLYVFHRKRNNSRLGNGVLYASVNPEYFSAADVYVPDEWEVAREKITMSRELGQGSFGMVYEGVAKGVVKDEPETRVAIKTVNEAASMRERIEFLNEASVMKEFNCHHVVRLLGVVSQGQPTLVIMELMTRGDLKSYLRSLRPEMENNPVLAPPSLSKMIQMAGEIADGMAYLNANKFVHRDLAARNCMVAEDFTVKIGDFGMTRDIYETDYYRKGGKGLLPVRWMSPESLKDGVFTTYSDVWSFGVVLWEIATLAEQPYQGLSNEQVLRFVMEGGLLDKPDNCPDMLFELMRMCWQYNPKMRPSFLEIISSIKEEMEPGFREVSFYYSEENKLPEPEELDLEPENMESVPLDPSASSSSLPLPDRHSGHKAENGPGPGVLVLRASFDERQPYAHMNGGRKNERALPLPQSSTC
Chain of Cytochrome P450 2C9 (P11712 whole entry): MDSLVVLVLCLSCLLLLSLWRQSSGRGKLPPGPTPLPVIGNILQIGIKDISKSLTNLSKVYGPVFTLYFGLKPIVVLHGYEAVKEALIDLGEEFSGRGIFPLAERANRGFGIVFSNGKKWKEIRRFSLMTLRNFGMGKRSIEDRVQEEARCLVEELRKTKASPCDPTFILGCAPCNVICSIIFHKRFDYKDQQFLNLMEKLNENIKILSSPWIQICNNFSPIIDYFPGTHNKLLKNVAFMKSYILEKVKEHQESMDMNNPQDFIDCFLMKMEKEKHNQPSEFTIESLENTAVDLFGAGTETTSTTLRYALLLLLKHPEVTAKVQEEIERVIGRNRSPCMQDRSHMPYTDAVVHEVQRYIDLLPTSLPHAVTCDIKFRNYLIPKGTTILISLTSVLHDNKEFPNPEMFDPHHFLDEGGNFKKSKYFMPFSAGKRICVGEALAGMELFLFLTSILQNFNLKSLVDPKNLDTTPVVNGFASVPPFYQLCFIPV
Chain of Cytochrome P450 3A4 (P08684 whole entry): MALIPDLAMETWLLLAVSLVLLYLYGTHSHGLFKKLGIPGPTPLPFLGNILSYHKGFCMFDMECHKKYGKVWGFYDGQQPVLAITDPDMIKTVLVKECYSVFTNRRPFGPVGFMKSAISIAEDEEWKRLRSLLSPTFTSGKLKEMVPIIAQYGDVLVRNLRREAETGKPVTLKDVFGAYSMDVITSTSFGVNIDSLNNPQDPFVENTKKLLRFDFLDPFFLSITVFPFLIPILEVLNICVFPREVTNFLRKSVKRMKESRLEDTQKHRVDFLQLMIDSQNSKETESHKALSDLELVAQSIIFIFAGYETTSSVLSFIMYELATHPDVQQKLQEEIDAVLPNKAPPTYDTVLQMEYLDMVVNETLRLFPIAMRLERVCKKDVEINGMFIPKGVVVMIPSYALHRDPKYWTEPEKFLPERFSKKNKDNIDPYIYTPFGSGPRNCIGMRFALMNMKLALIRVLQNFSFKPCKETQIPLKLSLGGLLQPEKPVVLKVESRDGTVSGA
Chain of Insulin receptor (P06213 28-758 limits assumed): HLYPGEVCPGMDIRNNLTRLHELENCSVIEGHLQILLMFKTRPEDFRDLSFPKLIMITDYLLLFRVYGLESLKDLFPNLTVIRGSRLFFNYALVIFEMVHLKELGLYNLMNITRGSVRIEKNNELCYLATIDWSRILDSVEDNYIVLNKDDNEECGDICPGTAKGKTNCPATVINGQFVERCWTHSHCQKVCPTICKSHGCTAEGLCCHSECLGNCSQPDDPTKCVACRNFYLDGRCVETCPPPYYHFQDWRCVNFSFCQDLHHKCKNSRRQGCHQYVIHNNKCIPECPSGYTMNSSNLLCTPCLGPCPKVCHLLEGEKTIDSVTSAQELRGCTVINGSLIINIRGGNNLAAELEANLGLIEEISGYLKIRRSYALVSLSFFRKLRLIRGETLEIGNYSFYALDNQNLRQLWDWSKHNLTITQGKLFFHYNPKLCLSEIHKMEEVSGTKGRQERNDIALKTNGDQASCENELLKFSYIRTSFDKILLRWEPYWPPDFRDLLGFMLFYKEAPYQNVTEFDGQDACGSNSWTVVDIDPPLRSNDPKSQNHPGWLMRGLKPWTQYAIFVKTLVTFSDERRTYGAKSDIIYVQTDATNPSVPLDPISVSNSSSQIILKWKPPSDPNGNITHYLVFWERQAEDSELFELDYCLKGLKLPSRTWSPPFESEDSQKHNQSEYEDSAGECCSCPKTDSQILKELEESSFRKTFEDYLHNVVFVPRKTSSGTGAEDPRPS
Chain of Insulin receptor (P06213 763-1382 limits assumed): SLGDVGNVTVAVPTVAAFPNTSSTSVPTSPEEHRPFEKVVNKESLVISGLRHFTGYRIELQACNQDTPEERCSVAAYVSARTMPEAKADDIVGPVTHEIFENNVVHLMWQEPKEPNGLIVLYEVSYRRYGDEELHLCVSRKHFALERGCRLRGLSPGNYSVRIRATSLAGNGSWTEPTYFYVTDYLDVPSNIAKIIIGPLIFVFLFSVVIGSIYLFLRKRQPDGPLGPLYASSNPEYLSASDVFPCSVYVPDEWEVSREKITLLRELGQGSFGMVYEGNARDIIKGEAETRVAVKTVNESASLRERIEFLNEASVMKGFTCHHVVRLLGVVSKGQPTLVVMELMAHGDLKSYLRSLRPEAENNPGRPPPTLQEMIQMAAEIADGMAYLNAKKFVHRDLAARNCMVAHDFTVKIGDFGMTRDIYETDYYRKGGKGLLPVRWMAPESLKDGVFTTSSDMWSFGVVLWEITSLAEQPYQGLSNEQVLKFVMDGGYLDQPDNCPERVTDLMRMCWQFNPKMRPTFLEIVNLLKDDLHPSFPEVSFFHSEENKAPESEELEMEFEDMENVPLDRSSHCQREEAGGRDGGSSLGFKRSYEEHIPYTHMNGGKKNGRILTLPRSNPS
Chain of Cytochrome P450 2C19 (P33261 whole entry): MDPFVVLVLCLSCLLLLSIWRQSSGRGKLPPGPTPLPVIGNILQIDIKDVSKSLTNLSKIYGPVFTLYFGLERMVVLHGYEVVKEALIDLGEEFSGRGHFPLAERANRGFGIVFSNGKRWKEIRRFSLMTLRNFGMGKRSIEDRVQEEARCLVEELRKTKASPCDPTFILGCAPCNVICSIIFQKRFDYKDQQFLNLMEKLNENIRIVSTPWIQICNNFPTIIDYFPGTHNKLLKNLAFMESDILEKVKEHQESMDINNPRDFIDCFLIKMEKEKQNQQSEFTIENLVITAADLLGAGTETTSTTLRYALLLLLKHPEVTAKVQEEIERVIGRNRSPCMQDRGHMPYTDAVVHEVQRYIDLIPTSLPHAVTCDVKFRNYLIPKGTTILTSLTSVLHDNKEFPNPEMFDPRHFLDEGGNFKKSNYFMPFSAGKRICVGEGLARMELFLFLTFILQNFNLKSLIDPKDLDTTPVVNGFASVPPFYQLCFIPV
Chain of Cytochrome P450 2D6 (P10635 whole entry): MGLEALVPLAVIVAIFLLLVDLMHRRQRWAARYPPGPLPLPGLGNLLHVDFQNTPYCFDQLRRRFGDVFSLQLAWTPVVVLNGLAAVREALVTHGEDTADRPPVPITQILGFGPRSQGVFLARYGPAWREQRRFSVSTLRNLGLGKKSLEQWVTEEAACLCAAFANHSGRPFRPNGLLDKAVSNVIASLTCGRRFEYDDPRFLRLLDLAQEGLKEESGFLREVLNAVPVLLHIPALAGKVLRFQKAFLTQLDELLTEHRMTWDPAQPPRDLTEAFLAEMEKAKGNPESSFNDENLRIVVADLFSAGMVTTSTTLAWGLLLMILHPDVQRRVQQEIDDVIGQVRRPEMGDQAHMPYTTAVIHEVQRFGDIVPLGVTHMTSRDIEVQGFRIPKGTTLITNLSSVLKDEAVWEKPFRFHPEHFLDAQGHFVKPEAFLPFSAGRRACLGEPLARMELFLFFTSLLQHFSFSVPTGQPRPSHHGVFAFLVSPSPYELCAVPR

The IC50 is the concentration that gives 50% inhibition. Regarding `CC1(C)C(=O)N(c2ccc(S(=O)(=O)C(F)(F)F)cc2)C(=O)N1Cc1ccnc2ccccc12`, the midpoint of inhibition in [1], the IC50, lay at 460 nM.

Consider `CC1(C)C(=O)N(c2ccc(SC(F)(F)F)cc2)C(=O)N1Cc1ccnc(Nc2ccccc2)c1`, for which the IC50 in series [1] came to 1060 nM.

The compound `CC1(C)C(=O)N(c2ccc(SC(F)(F)F)cc2)C(=O)N1Cc1ccnc(C(=O)O)c1` displayed an IC50 in [1] of more than 10000 nM.

Consider `CC1(C)C(=O)N(c2ccc(SC(F)(F)F)cc2)C(=O)N1Cc1ccnc(C(N)=O)c1`, for which the midpoint of inhibition in series [1], the IC50, lay at 2950 nM.

Take `CC1(C)C(=O)N(c2ccc(SC(F)(F)F)cc2)C(=O)N1Cc1ccnc(N2CCNCC2)c1`: the IC50 in [1] is more than 10000 nM.

For the compound `CN1CCN(c2cc(CN3C(=O)N(c4ccc(SC(F)(F)F)cc4)C(=O)C3(C)C)ccn2)CC1`, in series [1], the IC50 was more than 10000 nM.

In series [1], `CC1(C)C(=O)N(c2ccc(SC(F)(F)F)cc2)C(=O)N1Cc1ccnc(N2CCOCC2)c1` showed an IC50 of more than 10000 nM.

Consider `CC(=O)Nc1cc(CN2C(=O)N(c3ccc(SC(F)(F)F)cc3)C(=O)C2(C)C)ccn1`, for which the IC50 in [2] came out at 28 nM; in series [1], 98 nM; in series [3], 98 nM; in series [4], 175 nM; in [5], 87 nM; in series [6] it was 7 nM. The 50% inhibitory concentration (IC50) in [7] turned out to be 7 nM; in series [8] it was 8 nM; in series [9], 7 nM.

The compound `C[C@H]1C(=O)N(c2ccc(S(=O)(=O)C(F)(F)F)cc2)C(=O)N1Cc1c[nH]cn1` showed an IC50 in series [1] of more than 100000 nM.

Regarding `CC1(C)C(=O)N(c2ccc(SC(F)(F)F)cc2)C(=O)N1Cc1ccnc(NCc2ccccc2)c1`, in [1], the IC50 came to 1050 nM.

Consider `CC(C)(C)OC(=O)Nc1cc(CN2C(=O)N(c3ccc(SC(F)(F)F)cc3)C(=O)C2(C)C)ccn1`, for which the IC50 in series [1] amounted to 784 nM.

As for `C[C@H]1C(=O)N(c2ccc(S(=O)(=O)C(F)(F)F)cc2)C(=O)N1Cc1cc[n+]([O-])cc1`, the IC50 in series [1] was more than 100000 nM.

As to `CCNc1cc(CN2C(=O)N(c3ccc(SC(F)(F)F)cc3)C(=O)C2(C)C)ccn1`, the half-maximal inhibitory concentration (IC50) in series [1] is 154 nM; in series [3], 154 nM; in [6], 47 nM; in series [8] it was 104 nM.

Regarding `CC1(C)C(=O)N(c2ccc(SC(F)(F)F)cc2)C(=O)N1Cc1ccnc(NS(C)(=O)=O)c1`, in [1], it took 4710 nM to reach half-maximal inhibition (IC50).

In the case of `CC1(C)C(=O)N(c2ccc(SC(F)(F)F)cc2)C(=O)N1Cc1ccncc1`, the IC50 in [1] amounted to 264 nM; in [3], 264 nM; in series [6], 117 nM; in series [8], 282 nM.

The compound `COc1ccc(CNc2cc(CN3C(=O)N(c4ccc(SC(F)(F)F)cc4)C(=O)C3(C)C)ccn2)cc1` displayed an IC50 in series [1] of 1090 nM.

A word on the Cmax: it is the highest concentration seen after dosing. Usually solubility stands for the dissolved amount per volume that the medium holds. The low end stands for a poorly soluble substance, the high end for a readily soluble substance. One may read the bioavailability as the share of a dose that reaches the circulation, judged against a reference dose that is usually intravenous. Read a low bioavailability as little systemic uptake. A word on the AUC(0-inf): it is the area under the concentration-time curve extrapolated to infinity. Low readings indicate low exposure, high ones high exposure. For `C[C@H]1C(=O)N(c2ccc(S(=O)(=O)C(F)(F)F)cc2)C(=O)N1Cc1ccnc2ccccc12`, the IC50 in series [10] is more than 15000 nM; in series [11], more than 15000 nM; in series [13], 300 nM; in series [14] it was more than 15000 nM; in [16], 700 nM; in series [19] it was more than 15000 nM. For the same compound, in [8], the IC50 was 300 nM. The compound further came in with a Cmax in series [12] of 1490 ng/mL. The same compound displayed a solubility in series [15] of 9.9 µg/mL (≈ 21.4 µM). In series [17], this compound returned a bioavailability of more than 100%. In series [18], this compound yielded an AUC(0-inf) of 13200 ng·h/mL. In addition, the remaining at 0.25 h worked out at 83% in series [20] and 82% in series [21].

In the case of `CCOc1cc(CN2C(=O)N(c3ccc(SC(F)(F)F)cc3)C(=O)C2(C)C)ccn1`, in series [1], it took 1850 nM to reach half-maximal inhibition (IC50).

In the case of `CNc1cc(CN2C(=O)N(c3ccc(SC(F)(F)F)cc3)C(=O)C2(C)C)ccn1`, in [8], the IC50 was found to be 312 nM.

As for `CC1(C)C(=O)N(c2ccc(SC(F)(F)F)cc2)C(=O)N1Cc1ccnc(NC2CCCCC2)c1`, 1240 nM corresponded to half-maximal inhibition in [1] (IC50).

Compound `C[C@H]1C(=O)N(c2ccc(S(=O)(=O)C(F)(F)F)cc2)C(=O)N1Cc1cc[n+]([O-])c2ccccc12` came in with an IC50 in [1] of more than 100000 nM.

In series [1], `C[C@H]1C(=O)N(c2ccc(S(=O)(=O)C(F)(F)F)cc2)C(=O)N1Cc1ccncc1` came in with an IC50 of 1600 nM.

The compound `CC1(C)C(=O)N(c2ccc(SC(F)(F)F)cc2)C(=O)N1Cc1ccnc(Cl)c1` registered an IC50 in series [1] of 995 nM.

Regarding `CC(C)Nc1cc(CN2C(=O)N(c3ccc(SC(F)(F)F)cc3)C(=O)C2(C)C)ccn1`, half-maximal inhibition in series [1] (IC50) was put at 453 nM.

In series [1], `O=C1CN(Cc2ccnc3ccccc23)C(=O)N1c1ccc(S(=O)(=O)C(F)(F)F)cc1` yielded an IC50 of 5400 nM.

For the compound `CC1(C)C(=O)N(c2ccc(SC(F)(F)F)cc2)C(=O)N1Cc1ccnc(C#N)c1`, the IC50 in [1] was more than 10000 nM.

As to `C[C@H]1C(=O)N(c2ccc(S(=O)(=O)C(F)(F)F)cc2)C(=O)N1Cc1ccccc1`, the IC50 in [1] is more than 100000 nM.

Take `C[C@H]1C(=O)N(c2ccc(S(=O)(=O)C(F)(F)F)cc2)C(=O)N1CC1CCNCC1`: the IC50 in series [1] is more than 100000 nM.

As for `C[C@H]1C(=O)N(c2ccc(S(=O)(=O)C(F)(F)F)cc2)C(=O)N1Cc1cccnc1`, the IC50 in series [1] is 79700 nM.

`CNC(=O)c1cc(CN2C(=O)N(c3ccc(SC(F)(F)F)cc3)C(=O)C2(C)C)ccn1` displayed an IC50 in series [1] of 703 nM.

`CCc1cc(CN2C(=O)N(c3ccc(SC(F)(F)F)cc3)C(=O)C2(C)C)ccn1` gave a concentration for half-maximal inhibition (IC50) in series [1] of 574 nM.

In series [1], `CC1(C)C(=O)N(c2ccc(SC(F)(F)F)cc2)C(=O)N1Cc1ccnc(N2CCCCC2)c1` displayed an IC50 of more than 10000 nM.

With `COc1cc2c(-c3cc4cccnc4[nH]3)cn(C)c2cc1OC`, the IC50 in series [2] stood at 33 nM; in series [1], 55 nM; in series [4] it was 34 nM; in series [5], 34 nM; in series [6], 145 nM; in series [7], 180 nM. Also, the IC50 is 1600 nM in series [8] and 35 nM in [9].

`C[C@H]1C(=O)N(c2ccc(S(C)(=O)=O)cc2)C(=O)N1Cc1ccnc2ccccc12` came in with an IC50 in series [1] of more than 100000 nM.

In series [1], `CN(C)c1cc(CN2C(=O)N(c3ccc(SC(F)(F)F)cc3)C(=O)C2(C)C)ccn1` registered an IC50 of 4500 nM.

On to `C[C@H]1C(=O)N(c2ccc(S(=O)(=O)C(F)(F)F)cc2)C(=O)N1Cc1ccccn1`, for which, in [1], the IC50 was more than 100000 nM.

For the compound `CC1(C)C(=O)N(c2ccc(SC(F)(F)F)cc2)C(=O)N1Cc1ccnc(N)c1`, the IC50 is 92 nM in series [1], 92 nM in [3], 34 nM in series [6] and 97 nM in [8].

With `C[C@H]1C(=O)N(c2ccc([S+]([O-])C(F)(F)F)cc2)C(=O)N1Cc1ccnc2ccccc12` (stereo not given in full), the IC50 in series [1] turned out to be 2520 nM.

As to `C[C@H]1C(=O)N(c2ccc(S(=O)(=O)C(F)(F)F)cc2)C(=O)N1Cc1cnc2ccccc2c1`, the IC50 in series [1] was more than 100000 nM.
